Experimental data taken from PubChem BioAssay AID1845205 (Molecular Pharmacology Branch, DTP, NCI, 2023).

Tested on: MPNST multicellular tumor spheroids, viability % test/control
Experiment: Anticancer human tumor MPNST cell line growth inhibition;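 note: spheroids exposed to agents for seven days after three days of growth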;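 for viability, T/C: luminescence signal used as surrogate for viable cell amount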
Conditions: for IC50: curve of first compound; for viability, T/C: stronger effect = lower value
Outline: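 Single agents and combinations were tested on spheroids built from tumor cells plus HUVEC and hMSC, at half-log dilutions starting at or near clinical Cmax, else 10 microM; final DMSO 0.25% (v/v).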

[1] = second compound 30 pM, first compound 0.0316 µM
[2] = second compound 30 pM, first compound 0.1 µM
[3] = second compound 30 pM, first compound 0.316 µM
[4] = second compound 30 pM, first compound 1 µM
[5] = second compound 30 pM, first compound 3.16 µM
[6] = second compound 30 pM, first compound 10 µM
[7] = second compound 94.9 pM, first compound 0.0316 µM
[8] = second compound 94.9 pM, first compound 0.1 µM
[9] = second compound 94.9 pM, first compound 0.316 µM
[10] = second compound 94.9 pM, first compound 1 µM
[11] = second compound 94.9 pM, first compound 3.16 µM
[12] = second compound 94.9 pM, first compound 10 µM
[13] = second compound 0.0003 µM, first compound 0.0316 µM
[14] = second compound 0.0003 µM, first compound 0.1 µM
[15] = second compound 0.0003 µM, first compound 0.316 µM
[16] = second compound 0.0003 µM, first compound 1 µM
[17] = second compound 0.0003 µM, first compound 3.16 µM
[18] = second compound 0.0003 µM, first compound 10 µM
[19] = second compound 0.000949 µM, first compound 0.0316 µM
[20] = second compound 0.000949 µM, first compound 0.1 µM
[21] = second compound 0.000949 µM, first compound 0.316 µM
[22] = second compound 0.000949 µM, first compound 1 µM
[23] = second compound 0.000949 µM, first compound 3.16 µM
[24] = second compound 0.000949 µM, first compound 10 µM
[25] = second compound 0.003 µM, first compound 0.0316 µM
[26] = second compound 0.003 µM, first compound 0.1 µM
[27] = second compound 0.003 µM, first compound 0.316 µM
[28] = second compound 0.003 µM, first compound 1 µM
[29] = second compound 0.003 µM, first compound 3.16 µM
[30] = second compound 0.003 µM, first compound 10 µM

## CC1COCCN1c1cc(-c2ccnn2C)c2ccnc(-c3ccn[nH]3)c2n1 (stereo not given) + COc1cc2c(cc1O)CCNC21CSC2c3c(OC(C)=O)c(C)c4c(c3C(COC1=O)N1C(O)C3Cc5cc(C)c(OC)c(O)c5C(C21)N3C)OCO4
Second compound 30 pM
  IC50: < 31.6 nM
Second compound 94.9 pM
  IC50: < 31.6 nM
Second compound 0.0003 µM
  IC50: < 31.6 nM
Second compound 0.000949 µM
  IC50: < 31.6 nM
Second compound 0.003 µM
  IC50: < 31.6 nM
[1]
  viability, T/C: 47.3%
[2]
  viability, T/C: 48.1%
[3]
  viability, T/C: 42%
[4]
  viability, T/C: 39.2%
[5]
  viability, T/C: 31.1%
[6]
  viability, T/C: 25.6%
[7]
  viability, T/C: 47.8%
[8]
  viability, T/C: 44.8%
[9]
  viability, T/C: 39.4%
[10]
  viability, T/C: 33%
[11]
  viability, T/C: 29.2%
[12]
  viability, T/C: 25.6%
[13]
  viability, T/C: 47.8%
[14]
  viability, T/C: 44.9%
[15]
  viability, T/C: 38.7%
[16]
  viability, T/C: 36.9%
[17]
  viability, T/C: 28.8%
[18]
  viability, T/C: 24.6%
[19]
  viability, T/C: 45.4%
[20]
  viability, T/C: 41.2%
[21]
  viability, T/C: 39.4%
[22]
  viability, T/C: 31.3%
[23]
  viability, T/C: 24.2%
[24]
  viability, T/C: 20.7%
[25]
  viability, T/C: 12.2%
[26]
  viability, T/C: 11.1%
[27]
  viability, T/C: 10.5%
[28]
  viability, T/C: 6.65%
[29]
  viability, T/C: 5.18%
[30]
  viability, T/C: 4.99%

## COc1cc(C)[nH]c(=O)c1CN1CCc2c(Cl)cc(C(OC)C3COC3)c(Cl)c2C1=O (stereo not given) + COc1cc2c(cc1O)CCNC21CSC2c3c(OC(C)=O)c(C)c4c(c3C(COC1=O)N1C(O)C3Cc5cc(C)c(OC)c(O)c5C(C21)N3C)OCO4
Second compound 30 pM
  IC50: > 10000 nM
Second compound 94.9 pM
  IC50: > 10000 nM
Second compound 0.0003 µM
  IC50: > 10000 nM
Second compound 0.000949 µM
  IC50: < 31.6 nM
Second compound 0.003 µM
  IC50: < 31.6 nM
[1]
  viability, T/C: 73.7%
[2]
  viability, T/C: 77.4%
[3]
  viability, T/C: 74.5%
[4]
  viability, T/C: 84.8%
[5]
  viability, T/C: 81%
[6]
  viability, T/C: 90.3%
[7]
  viability, T/C: 94.7%
[8]
  viability, T/C: 78.4%
[9]
  viability, T/C: 86.4%
[10]
  viability, T/C: 77.5%
[11]
  viability, T/C: 83.2%
[12]
  viability, T/C: 69.9%
[13]
  viability, T/C: 79%
[14]
  viability, T/C: 68.8%
[15]
  viability, T/C: 91.7%
[16]
  viability, T/C: 82.5%
[17]
  viability, T/C: 69.8%
[18]
  viability, T/C: 60.6%
[19]
  viability, T/C: 47.6%
[20]
  viability, T/C: 46%
[21]
  viability, T/C: 45.3%
[22]
  viability, T/C: 42.8%
[23]
  viability, T/C: 42.6%
[24]
  viability, T/C: 45.4%
[25]
  viability, T/C: 9.08%
[26]
  viability, T/C: 11.7%
[27]
  viability, T/C: 12.8%
[28]
  viability, T/C: 5.61%
[29]
  viability, T/C: 7.75%
[30]
  viability, T/C: 6.1%

## COc1ccc([C@@H](O)c2cc(-c3ncnc4cc(N5CCOCC5)ccc34)c(F)cc2Cl)nn1 + COc1cc2c(cc1O)CCNC21CSC2c3c(OC(C)=O)c(C)c4c(c3C(COC1=O)N1C(O)C3Cc5cc(C)c(OC)c(O)c5C(C21)N3C)OCO4
Second compound 30 pM
  IC50: 171 nM
Second compound 94.9 pM
  IC50: 531 nM
Second compound 0.0003 µM
  IC50: 645 nM
Second compound 0.000949 µM
  IC50: 174 nM
Second compound 0.003 µM
  IC50: < 31.6 nM
[1]
  viability, T/C: 97.1%
[2]
  viability, T/C: 72%
[3]
  viability, T/C: 24.1%
[4]
  viability, T/C: 12.8%
[5]
  viability, T/C: 5.82%
[6]
  viability, T/C: 3.35%
[7]
  viability, T/C: 113%
[8]
  viability, T/C: 74.7%
[9]
  viability, T/C: 70.9%
[10]
  viability, T/C: 39.6%
[11]
  viability, T/C: 8.1%
[12]
  viability, T/C: 3.63%
[13]
  viability, T/C: 89.4%
[14]
  viability, T/C: 70.9%
[15]
  viability, T/C: 92.8%
[16]
  viability, T/C: 28.8%
[17]
  viability, T/C: 9.77%
[18]
  viability, T/C: 2.97%
[19]
  viability, T/C: 84.4%
[20]
  viability, T/C: 48.4%
[21]
  viability, T/C: 55.4%
[22]
  viability, T/C: 14.4%
[23]
  viability, T/C: 11.7%
[24]
  viability, T/C: 0.94%
[25]
  viability, T/C: 15.7%
[26]
  viability, T/C: 16.1%
[27]
  viability, T/C: 8.56%
[28]
  viability, T/C: 4.27%
[29]
  viability, T/C: 2.63%
[30]
  viability, T/C: 0.51%

## Cc1cc(C)c(CNC(=O)c2cc(-c3ccc(CN4CCOCC4)cc3)cc3c2cnn3C2CCCC2)c(=O)[nH]1 + COc1cc2c(cc1O)CCNC21CSC2c3c(OC(C)=O)c(C)c4c(c3C(COC1=O)N1C(O)C3Cc5cc(C)c(OC)c(O)c5C(C21)N3C)OCO4
Second compound 30 pM
  IC50: > 10000 nM
Second compound 94.9 pM
  IC50: > 10000 nM
Second compound 0.0003 µM
  IC50: > 10000 nM
Second compound 0.000949 µM
  IC50: < 31.6 nM
Second compound 0.003 µM
  IC50: < 31.6 nM
[1]
  viability, T/C: 106%
[2]
  viability, T/C: 93.7%
[3]
  viability, T/C: 85.2%
[4]
  viability, T/C: 101%
[5]
  viability, T/C: 113%
[6]
  viability, T/C: 99.3%
[7]
  viability, T/C: 104%
[8]
  viability, T/C: 89.8%
[9]
  viability, T/C: 71%
[10]
  viability, T/C: 102%
[11]
  viability, T/C: 120%
[12]
  viability, T/C: 68.9%
[13]
  viability, T/C: 86%
[14]
  viability, T/C: 80.3%
[15]
  viability, T/C: 83.3%
[16]
  viability, T/C: 98%
[17]
  viability, T/C: 91.4%
[18]
  viability, T/C: 70.7%
[19]
  viability, T/C: 41.3%
[20]
  viability, T/C: 53.5%
[21]
  viability, T/C: 46%
[22]
  viability, T/C: 43.6%
[23]
  viability, T/C: 44.3%
[24]
  viability, T/C: 41.6%
[25]
  viability, T/C: 13.1%
[26]
  viability, T/C: 12.2%
[27]
  viability, T/C: 12.1%
[28]
  viability, T/C: 13.5%
[29]
  viability, T/C: 12.6%
[30]
  viability, T/C: 9.87%

## [2H]c1nc(C)nc([2H])c1-c1cc(NC[C@@H](C)c2cccc3c(C(=O)NC)ccnc23)ncn1 + COc1cc2c(cc1O)CCNC21CSC2c3c(OC(C)=O)c(C)c4c(c3C(COC1=O)N1C(O)C3Cc5cc(C)c(OC)c(O)c5C(C21)N3C)OCO4
Second compound 30 pM
  IC50: > 10000 nM
Second compound 94.9 pM
  IC50: > 10000 nM
Second compound 0.0003 µM
  IC50: > 10000 nM
Second compound 0.000949 µM
  IC50: < 31.6 nM
Second compound 0.003 µM
  IC50: < 31.6 nM
[1]
  viability, T/C: 83.5%
[2]
  viability, T/C: 71.4%
[3]
  viability, T/C: 73.3%
[4]
  viability, T/C: 97.6%
[5]
  viability, T/C: 72.7%
[6]
  viability, T/C: 88.1%
[7]
  viability, T/C: 94.4%
[8]
  viability, T/C: 83%
[9]
  viability, T/C: 81.6%
[10]
  viability, T/C: 103%
[11]
  viability, T/C: 99.9%
[12]
  viability, T/C: 78.3%
[13]
  viability, T/C: 78%
[14]
  viability, T/C: 75.8%
[15]
  viability, T/C: 72.5%
[16]
  viability, T/C: 95.7%
[17]
  viability, T/C: 75.8%
[18]
  viability, T/C: 87%
[19]
  viability, T/C: 48.4%
[20]
  viability, T/C: 40.6%
[21]
  viability, T/C: 42.7%
[22]
  viability, T/C: 43.1%
[23]
  viability, T/C: 42.3%
[24]
  viability, T/C: 42.9%
[25]
  viability, T/C: 9.53%
[26]
  viability, T/C: 12.7%
[27]
  viability, T/C: 8.26%
[28]
  viability, T/C: 12.5%
[29]
  viability, T/C: 9.06%
[30]
  viability, T/C: 8.35%
